Measured values as given in the NIST ThermoML archive (doi:10.1016/j.jct.2011.11.021).
Numbers after ± are expanded uncertainties.

Test: activity coefficient (dimensionless); of the first substance listed, at infinite dilution; xn = mol fraction of the nth substance listed
Settings: Liquid, Chromatography, x1 = 0

Row | SMILES | activity coefficient (318.15 K) | activity coefficient (328.15 K) | activity coefficient (338.15 K) | activity coefficient (348.15 K) | activity coefficient (358.15 K) | activity coefficient (368.15 K)
1 | Cc1ccccc1C [1,2-dimethylbenzene] + COCC[N+]1(C)CCOCC1.O=S(=O)([N-]S(=O)(=O)C(F)(F)F)C(F)(F)F | 2.75 ± 0.19 | 2.71 ± 0.18 | 2.68 ± 0.18 | 2.65 ± 0.18 | 2.61 ± 0.18 | 2.58 ± 0.18
2 | Cc1cccc(C)c1 [1,3-dimethylbenzene] + COCC[N+]1(C)CCOCC1.O=S(=O)([N-]S(=O)(=O)C(F)(F)F)C(F)(F)F | 3.05 ± 0.21 | 3.02 ± 0.21 | 2.99 ± 0.2 | 2.97 ± 0.2 | 2.94 ± 0.2 | 2.92 ± 0.2
3 | Cc1ccc(C)cc1 [1,4-dimethylbenzene] + COCC[N+]1(C)CCOCC1.O=S(=O)([N-]S(=O)(=O)C(F)(F)F)C(F)(F)F | 3.09 ± 0.21 | 3.06 ± 0.21 | 3.03 ± 0.21 | 3 ± 0.2 | 2.98 ± 0.2 | 2.96 ± 0.2
4 | C1COCCO1 [1,4-dioxane] + COCC[N+]1(C)CCOCC1.O=S(=O)([N-]S(=O)(=O)C(F)(F)F)C(F)(F)F | 0.57 ± 0.041 | 0.596 ± 0.042 | 0.615 ± 0.043 | 0.638 ± 0.044 | 0.653 ± 0.045 | 0.674 ± 0.046
5 | C=CCCCCCCCC [1-decene] + COCC[N+]1(C)CCOCC1.O=S(=O)([N-]S(=O)(=O)C(F)(F)F)C(F)(F)F | 87.8 ± 6 | 78.8 ± 5.4 | 72.1 ± 4.9 | 65.7 ± 4.5 | 59.4 ± 4.1 | 54.9 ± 3.8
6 | C=CCCCCC [1-heptene] + COCC[N+]1(C)CCOCC1.O=S(=O)([N-]S(=O)(=O)C(F)(F)F)C(F)(F)F | 24.9 ± 1.7 | 23 ± 1.6 | 21.7 ± 1.5 | 20.3 ± 1.4 | 19 ± 1.3 | 18.1 ± 1.2
7 | C#CCCCCC [1-heptyne] + COCC[N+]1(C)CCOCC1.O=S(=O)([N-]S(=O)(=O)C(F)(F)F)C(F)(F)F | 7.44 ± 0.51 | 7.24 ± 0.49 | 7.09 ± 0.48 | 6.94 ± 0.47 | 6.79 ± 0.46 | 6.65 ± 0.45
8 | C#CCCCC [1-hexyne] + COCC[N+]1(C)CCOCC1.O=S(=O)([N-]S(=O)(=O)C(F)(F)F)C(F)(F)F | 4.88 ± 0.33 | 4.8 ± 0.33 | 4.75 ± 0.32 | 4.7 ± 0.32 | 4.65 ± 0.32 | 4.61 ± 0.31
9 | CCC[N+](=O)[O-] [1-nitropropane] + COCC[N+]1(C)CCOCC1.O=S(=O)([N-]S(=O)(=O)C(F)(F)F)C(F)(F)F |  | 0.791 ± 0.051 | 0.787 ± 0.051 | 0.783 ± 0.051 | 0.78 ± 0.051 | 0.778 ± 0.051
10 | C#CCCCCCC [1-octyne] + COCC[N+]1(C)CCOCC1.O=S(=O)([N-]S(=O)(=O)C(F)(F)F)C(F)(F)F | 11.4 ± 0.8 | 11 ± 0.8 | 10.6 ± 0.7 | 10.3 ± 0.7 | 9.93 ± 0.68 | 9.67 ± 0.66
11 | C=CCCC [1-pentene] + COCC[N+]1(C)CCOCC1.O=S(=O)([N-]S(=O)(=O)C(F)(F)F)C(F)(F)F | 11 ± 0.8 | 10.3 ± 0.7 | 9.79 ± 0.67 | 9.25 ± 0.63 | 8.83 ± 0.6 | 8.35 ± 0.57
12 | CC(C)CC(C)(C)C [2,2,4-trimethylpentane] + COCC[N+]1(C)CCOCC1.O=S(=O)([N-]S(=O)(=O)C(F)(F)F)C(F)(F)F | 55.9 ± 3.8 | 49.5 ± 3.4 | 45 ± 3.1 | 40.8 ± 2.8 | 37.2 ± 2.5 | 34.1 ± 2.3
13 | CCC(C)(C)C [2,2-dimethylbutane] + COCC[N+]1(C)CCOCC1.O=S(=O)([N-]S(=O)(=O)C(F)(F)F)C(F)(F)F | 32.4 ± 2.2 | 28.4 ± 1.9 | 25.7 ± 1.8 | 23.2 ± 1.6 | 21.2 ± 1.4 | 19.5 ± 1.3
14 | CCOC(C)(C)C [2-ethoxy-2-methylpropane] + COCC[N+]1(C)CCOCC1.O=S(=O)([N-]S(=O)(=O)C(F)(F)F)C(F)(F)F | 9.5 ± 0.65 | 9.21 ± 0.63 | 8.97 ± 0.61 | 8.75 ± 0.6 | 8.49 ± 0.58 | 8.3 ± 0.57
15 | CCC(C)(C)OC [2-methoxy-2-methylbutane] + COCC[N+]1(C)CCOCC1.O=S(=O)([N-]S(=O)(=O)C(F)(F)F)C(F)(F)F | 5.55 ± 0.38 | 5.5 ± 0.37 | 5.43 ± 0.37 | 5.37 ± 0.37 | 5.32 ± 0.36 | 5.28 ± 0.36
16 | COC(C)(C)C [2-methoxy-2-methylpropane] + COCC[N+]1(C)CCOCC1.O=S(=O)([N-]S(=O)(=O)C(F)(F)F)C(F)(F)F | 3.53 ± 0.24 | 3.55 ± 0.24 | 3.57 ± 0.24 | 3.58 ± 0.24 | 3.59 ± 0.24 | 3.6 ± 0.25

Row | SMILES | activity coefficient (318.15 K) | activity coefficient (328.15 K) | activity coefficient (338.15 K) | activity coefficient (348.15 K) | activity coefficient (358.15 K) | activity coefficient (368.15 K)
17 | CC(C)CO [2-methyl-1-propanol] + COCC[N+]1(C)CCOCC1.O=S(=O)([N-]S(=O)(=O)C(F)(F)F)C(F)(F)F | 3.19 ± 0.22 | 2.81 ± 0.19 | 2.51 ± 0.17 | 2.25 ± 0.15 | 2.04 ± 0.14 | 1.89 ± 0.13
18 | CC(C)(C)O [2-methylpropan-2-ol] + COCC[N+]1(C)CCOCC1.O=S(=O)([N-]S(=O)(=O)C(F)(F)F)C(F)(F)F | 2.22 ± 0.15 | 2.03 ± 0.14 | 1.88 ± 0.13 | 1.75 ± 0.12 | 1.62 ± 0.11 | 1.52 ± 0.1
19 | CCC(C)CC [3-methylpentane] + COCC[N+]1(C)CCOCC1.O=S(=O)([N-]S(=O)(=O)C(F)(F)F)C(F)(F)F | 32.3 ± 2.2 | 29 ± 2 | 26.3 ± 1.8 | 23.9 ± 1.6 | 21.9 ± 1.5 | 20.2 ± 1.4
20 | C=C(C)c1ccccc1 [(1-methylethenyl)benzene] + COCC[N+]1(C)CCOCC1.O=S(=O)([N-]S(=O)(=O)C(F)(F)F)C(F)(F)F |  | 2.74 ± 0.19 | 2.76 ± 0.19 | 2.78 ± 0.19 | 2.79 ± 0.19 | 2.81 ± 0.19
21 | CC(=O)O [acetic acid] + COCC[N+]1(C)CCOCC1.O=S(=O)([N-]S(=O)(=O)C(F)(F)F)C(F)(F)F |  | 0.451 ± 0.036 | 0.456 ± 0.036 | 0.459 ± 0.036 | 0.465 ± 0.036 | 0.468 ± 0.037
22 | CC(C)=O [acetone] + COCC[N+]1(C)CCOCC1.O=S(=O)([N-]S(=O)(=O)C(F)(F)F)C(F)(F)F | 0.43 ± 0.035 | 0.442 ± 0.036 | 0.451 ± 0.036 | 0.461 ± 0.036 | 0.47 ± 0.037 | 0.48 ± 0.037
23 | CC#N [acetonitrile] + COCC[N+]1(C)CCOCC1.O=S(=O)([N-]S(=O)(=O)C(F)(F)F)C(F)(F)F | 0.423 ± 0.035 | 0.426 ± 0.035 | 0.428 ± 0.035 | 0.431 ± 0.035 | 0.433 ± 0.035 | 0.436 ± 0.035
24 | c1ccccc1 [benzene] + COCC[N+]1(C)CCOCC1.O=S(=O)([N-]S(=O)(=O)C(F)(F)F)C(F)(F)F | 1.33 ± 0.09 | 1.32 ± 0.09 | 1.32 ± 0.09 | 1.32 ± 0.09 | 1.31 ± 0.09 | 1.31 ± 0.09
25 | CCCCO [butan-1-ol] + COCC[N+]1(C)CCOCC1.O=S(=O)([N-]S(=O)(=O)C(F)(F)F)C(F)(F)F | 3.31 ± 0.23 | 2.94 ± 0.2 | 2.66 ± 0.18 | 2.4 ± 0.16 | 2.18 ± 0.15 | 2.02 ± 0.14
26 | CCC(C)O (centres undefined) [butan-2-ol] + COCC[N+]1(C)CCOCC1.O=S(=O)([N-]S(=O)(=O)C(F)(F)F)C(F)(F)F | 2.76 ± 0.19 | 2.47 ± 0.17 | 2.26 ± 0.15 | 2.06 ± 0.14 | 1.9 ± 0.13 | 1.78 ± 0.12
27 | CCCC=O [butanal] + COCC[N+]1(C)CCOCC1.O=S(=O)([N-]S(=O)(=O)C(F)(F)F)C(F)(F)F | 0.871 ± 0.056 | 0.884 ± 0.056 | 0.891 ± 0.057 | 0.902 ± 0.057 | 0.909 ± 0.058 | 0.918 ± 0.058
28 | C1CCCCCC1 [cycloheptane] + COCC[N+]1(C)CCOCC1.O=S(=O)([N-]S(=O)(=O)C(F)(F)F)C(F)(F)F | 26.2 ± 1.8 | 23.6 ± 1.6 | 21.5 ± 1.5 | 19.7 ± 1.3 | 18.1 ± 1.2 | 16.6 ± 1.1
29 | C1CCCCC1 [cyclohexane] + COCC[N+]1(C)CCOCC1.O=S(=O)([N-]S(=O)(=O)C(F)(F)F)C(F)(F)F | 18.8 ± 1.3 | 17 ± 1.2 | 15.6 ± 1.1 | 14.4 ± 1 | 13.3 ± 0.9 | 12.3 ± 0.8
30 | C1=CCCCC1 [cyclohexene] + COCC[N+]1(C)CCOCC1.O=S(=O)([N-]S(=O)(=O)C(F)(F)F)C(F)(F)F | 9.14 ± 0.62 | 8.62 ± 0.59 | 8.21 ± 0.56 | 7.84 ± 0.53 | 7.45 ± 0.51 | 7.08 ± 0.48
31 | C1CCCCCCC1 [cyclooctane] + COCC[N+]1(C)CCOCC1.O=S(=O)([N-]S(=O)(=O)C(F)(F)F)C(F)(F)F | 36.6 ± 2.5 | 32.6 ± 2.2 | 29.6 ± 2 | 26.7 ± 1.8 | 24.2 ± 1.7 | 22.1 ± 1.5
32 | C1CCCC1 [cyclopentane] + COCC[N+]1(C)CCOCC1.O=S(=O)([N-]S(=O)(=O)C(F)(F)F)C(F)(F)F | 12.2 ± 0.8 | 11.2 ± 0.8 | 10.4 ± 0.7 | 9.68 ± 0.66 | 9.1 ± 0.62 | 8.54 ± 0.58
